The results in this text go back to patent US20040266849A1, “Therapeutic compounds for treating dyslipidemic conditions” (priority 2004, published 2004).

Each structure is given as a SMILES string.

This experiment deals with ABCA1 mRNA. Briefly: Induction of ABCA1 mRNA levels in human primary macrophages. Type of experiment: cell-based. To be noted: Primary macrophage, 18 h + 6 h, vs DMSO control, read-out: Fold Induction of ABCA1 mRNA (Mean ± SEM). As for the experimental part: Induction of ABCA1 mRNA levels
Human Primary Macrophages were used to test the ability of LXR ligands to induce the expression of ABCA1 mRNA. The collection and purification of monocytes and their subsequent differentiation into macrophages by culturing in Teflon jars for 7-9 days was performed according to Wright and Silverstein J. Exp. Med. V156, October 1982 pp. 1149-1164. Cells were harvested from the Teflon jars and seeded into appropriate vessels in RPMI1640 plus 12% human serum and antibiotics. Cells were allowed to recover overnight before treatment. Treatment was for 18 hours with the described compounds, followed by a re-application of fresh compounds for an additional 6 hours in DMEM minus Phenol Red with 10% charcoal stripped FCS. The cells were harvested and total RNA prepared using the phenol/guanidine isothiocyanate method as supplied and described by Molecular Research Center, Inc. (TRI REAGENT® Cat. No. TR 118). ABCA1 mRNA levels in the total RNA were measured using the TaqMan® mRNA quantitation system, following protocols published by the manufacturer (Perkin-Elmer). The oligonucleotide PCR primers used to detect ABCA1 were: […]
The oligonucleotide probe used was:
ABCA1 mRNA levels in each sample were normalized to the mRNA levels for the 23 kDa highly basic protein. The oligonucleotide PCR primers used to detect the 23 kDa highly basic protein were: […]

In the case of `CC(C)CC[C@@H](O)[C@@H](C)[C@H]1CC[C@H]2[C@@H]3CC=C4C[C@@H](O)CC[C@]4(C)[C@H]3CC[C@]12C` [22-(R)-hydroxycholesterol, reference compound], the fold induction at 10 µM was determined as 8 ± 1.37.
Consider `CCCc1c(OCCCN(C)C(=O)CC(C)(C)CC(=O)O)ccc2c(C(F)(F)F)noc12` [Compound (3d)], for which the fold induction at 10 µM turned out to be 13.6 ± 1.1. The fold induction at 0.1 µM (0.1 μM) stood at 0.9 ± 0.2. Further, for the setting “1.0 μM”, the fold induction at 1 µM came out at 3.3 ± 0.3.
